From patent US11826402B2, “Combination therapy involving antibodies against claudin 18.2 for treatment of metastatic pancreatic adenocarcinoma” (Astellas Pharma Inc., priority 2013, dated 2023)

Legend:
Format in all cases: cell-based, human
[1] = tested on: Kato III cells; test: Cell cycle analysis of gastric cancer cells with cytostatic compounds
Experimental: Kato III cells, a human gastric tumor cell line, was cultivated in RPMI 1640 medium (Invitrogen) containing 20% FCS (Perbio) and 2 mM Glutamax (Invitrogen) at 37° C. and 5% CO2, with or without cytostatic compounds. 5-FU (Neofluor from NeoCorp AG) was tested at a concentration of 10 or 100 ng/ml, and oxaliplatin (Hospira) was tested at a concentration of 50 or 500 ng/ml. […] Cells were harvested with EDTA/trypsin, washed and analysed.
Cell cycle stages were determined based on measurement of cellular DNA content. This allows one to discriminate between cells in the G1-, S- or G2-phase of the cell cycle. In the S-phase DNA duplication occurs whereas in the G2-phase cells grow and prepare for mitosis. Cell cycle analysis was done using the CycleTEST PLUS DNA Reagent Kit from BD Biosciences following the manufacturer's protocol. Flow cytometry acquisition and analysis were performed by using BD FACS CantoII (BD Biosciences) and FlowJo (Tree Star) software.
Kato III cells were pretreated for 4 days with Irinotecan or Docetaxel and analysed for CLDN18.2 expression and cell cycle arrest.

[2] = tested on: KATO-III; test: IMAB362-induced ADCC on gastric cancer cells, also after chemotherapy pretreatment; settings: Kato III pretreated 3 days; Irinotecan 1000 ng/ml, Docetaxel 5 ng/ml, Cisplatin 2000 ng/ml
Experimental: Peripheral blood mononuclear cells (PBMCs) including NK cells, monocytes, […] or other effector cells from healthy human donors were purified by Ficoll Hypaque density centrifugation. Washed effector cells were seeded in X-Vivo medium. Kato III cells which express CLDN18.2 endogenously and are of gastric origin were used as target cells in this setting. Target cells stably expressed luciferase, lucifer yellow, which is oxidized by viable cells only.

[3] = tested on: Kato III cells; test: Kato III cells pretreated with cytostatic compounds: cell growth, viable cells, CLDN18.2 expression; settings: for claudin18.2 expression versus medium cultivated cells / level of viable cells versus medium cultivated cells: Kato III pretreated 3 days, Irinotecan 1000 ng/ml, Docetaxel 5 ng/ml, Cisplatin 2000 ng/ml; for cell growth: Kato III pretreated for 4 days
[4] = tested on: MiaPaCa-2-LVT; test: Inhibition of proliferation (XTT viability assay, 4 days)
Experimental: To analyze dose-response curves of each chemotherapeutic agent, a proliferation assay was performed.
Cells were seeded in 96 well plates and after 4-6 hours gemcitabine or oxaliplatin was added in following concentrations: 1000, 500, 250, 100 and 20 ng/ml. The proliferation assay was incubated for 4 days at 37° C. and 5% CO2. 50 μl XTT complete reagent (50 parts XTT+1 part coupl. reagent mixed) was added and incubated at 37° C. Measurement of absorbance (cells plus supernatant) was done with the Tecan Safire after 3 h and 4 h. Inhibition of proliferation was calculated compared to medium values set as 100%. EC50 values for gemcitabine and oxaliplatin were calculated in the GraphPad Prism program.

| SMILES | cell cycle effect [1] | effect of pretreatment on IMAB362 induced ADCC [2] | claudin18.2 expression versus medium cultivated cells [3] | level of viable cells versus medium cultivated cells [3] | cell growth [3] | sensitivity of cells to the agent [4] |
| --- | --- | --- | --- | --- | --- | --- |
| O=c1[nH]cc(F)c(=O)[nH]1 [5-FU, 5-fluoro-1H-pyrimidine-2,4-dione] | blocked predominantly in the S-phase |  |  |  |  |  |
| N.N.[Cl][Pt][Cl] [Cisplatin, cis-diaminedichloroplatinum(II)] |  | augments the potency of IMAB362 to induce ADCC | increased | lower level of viable cells |  |  |
| CC(=O)O[C@@]12CO[C@@H]1C[C@H](O)[C@@]1(C)C(=O)[C@H](O)C3=C(C)[C@@H](OC(=O)[C@H](O)[C@@H](NC(=O)OC(C)(C)C)c4ccccc4)C[C@@](O)([C@@H](OC(=O)c4ccccc4)[C@H]21)C3(C)C [Docetaxel, 1,7β,10β-trihydroxy-9-oxo-5β,20-epoxytax-11-ene-2α,4,13α-triyl 4-acetate 2-benzoate 13-{(2R,3S)-3-[(tert-butoxycarbonyl)-amino]-2-hydroxy-3-phenylpropanoate}] | cell cycle arrest in the G2-phase | augments the potency of IMAB362 to induce ADCC | increased | lower level of viable cells | dose dependent inhibition of cell growth |  |
| CCc1c2c(nc3ccc(OC(=O)N4CCC(N5CCCCC5)CC4)cc13)-c1cc3c(c(=O)n1C2)COC(=O)[C@]3(O)CC [Irinotecan, (S)-4,11-diethyl-3,4,12,14-tetrahydro-4-hydroxy-3,14-dioxo1H-pyrano[3′,4′:6,7]-indolizino[1,2-b]quinolin-9-yl-[1,4′-bipiperidine]-1′-carboxylate] | cell cycle arrest in the S/G2-phase | augments the potency of IMAB362 to induce ADCC | increased | lower level of viable cells | dose dependent inhibition of cell growth |  |
| O=C1[O][Pt]2([NH][C@@H]3CCCC[C@H]3[NH]2)[O]C1=O [oxaliplatin, [(1R,2R)-cyclohexane-1,2-diamine](ethanedioato-O,O′)platinum(II)] |  |  |  |  |  | most sensitive |
